Test results as given in patent publication US11155573B2, “Bile salt hydrolase probe and method of making and using the same” (Battelle Memorial Institute, priority 2017, dated 2021).

Columns and labels:
purified BSH [1] = settings: read-out: Michaelis-Menten constant (Km); turnover by purified BSH, 0.1 M sodium phosphate pH 6, 37° C.
Protocol: Reaction volumes of 100 μL were used in Microfluor1 black flat bottom microtiter 96 well plates (Thermo Scientific). 50 μL of enzyme (40 μg/ml) in buffer (0.1 M sodium phosphate, pH=6) was added to each well. […] Reactions were immediately placed in a plate reader (SPECTRAmax Gemini XS) pre-warmed to 37° C., and reaction progress was monitored at 450 nm (excitation 350 nm) for 20 minutes. Reactions had final concentrations of 20 μg/ml enzyme, 0.1 M sodium phosphate (pH 6), and 2.5% DMSO.
The initial rate data was used for determination of Km values. For Km determination, the kinetic values were obtained directly from nonlinear regression of substrate-velocity curves in the presence of varying concentrations of BA-AMCA. The equation Y=(Vmax*X)/(Km+X*(1+X/Ki)), X=substrate concentration (μM) and Y=enzyme velocity (RFU/s); was used in the nonlinear regression. Each BA-AMCA Km value was determined using at least three independent experiments.

[2] = tested on: endogenously expressed BSH in L. plantarum lysate; assay: Lactobacillus plantarum lysate assay; format: biochemical; settings: CAPE 2 mM
Protocol: Reaction volumes of 100 μL were used in Microfluor1 black flat bottom microtiter 96 well plates (Thermo Scientific). […] A 50 μL solution of probe (300 μM) in buffer with 5% DMSO was then added to initiate the reaction. Reactions were immediately placed in a plate reader (SPECTRAmax Gemini XS) pre-warmed to 37° C., and reaction progress was monitored at 450 nm (excitation 350 nm) for 20 minutes.

L. plantarum cells = assay: Whole-cell Lactobacillus plantarum assay; format: cell-based; settings: varying amount of CAPE
Protocol: A starter culture was created by inoculation of 5 ml MRS broth from a L. plantarum colony grown on MRS agar. The starter culture was incubated overnight at 37° C. overnight. The 5 ml starter culture was then added to 95 ml fresh MRS broth and grown until the optical density at 600 nm reached 0.7. At that point, the cells were pelleted via centrifugation. The cell pellet was resuspended in 15 ml PBS, and centrifuged. The cells were additionally washed with PBS and pelleted once more. The resulting pellet was suspended in 380 μl PBS. The cell suspension was then serially diluted two-fold. […]

purified BSH [3] = assay: GCA and iodoacetamide competition assay; format: biochemical; settings: CA-AMCA 150 μM, BSH 10 μg/ml
[4] = target: T1, purified recombinant Lactobacillus plantarum BSH (Lactiplantibacillus plantarum, UniProt Q06115); assay: BA-ABP labeling of purified BSH; format: binding
T1 sequence (Q06115 1-324): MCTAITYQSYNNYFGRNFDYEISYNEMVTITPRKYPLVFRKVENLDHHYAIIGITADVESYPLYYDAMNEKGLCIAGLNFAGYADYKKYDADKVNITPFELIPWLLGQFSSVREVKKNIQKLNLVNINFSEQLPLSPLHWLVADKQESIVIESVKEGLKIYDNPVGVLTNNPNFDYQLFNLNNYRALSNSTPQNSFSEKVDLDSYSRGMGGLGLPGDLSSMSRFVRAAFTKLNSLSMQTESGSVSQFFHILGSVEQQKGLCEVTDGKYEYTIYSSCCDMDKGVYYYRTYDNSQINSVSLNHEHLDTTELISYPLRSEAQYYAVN
Protocol: Binding of BA-ABP to purified recombinant Lactobacillus plantarum BSH was assessed through incubation with probe in buffer (FIG. 18A). […] Additionally, labeling was time-dependent.

BSH [5] = target: T2, BSH (Lactiplantibacillus plantarum, UniProt Q06115); assay: BA-ABP labeling of purified BSH added to Escherichia coli bacterial lysate; format: binding
T2 sequence (Q06115 1-324): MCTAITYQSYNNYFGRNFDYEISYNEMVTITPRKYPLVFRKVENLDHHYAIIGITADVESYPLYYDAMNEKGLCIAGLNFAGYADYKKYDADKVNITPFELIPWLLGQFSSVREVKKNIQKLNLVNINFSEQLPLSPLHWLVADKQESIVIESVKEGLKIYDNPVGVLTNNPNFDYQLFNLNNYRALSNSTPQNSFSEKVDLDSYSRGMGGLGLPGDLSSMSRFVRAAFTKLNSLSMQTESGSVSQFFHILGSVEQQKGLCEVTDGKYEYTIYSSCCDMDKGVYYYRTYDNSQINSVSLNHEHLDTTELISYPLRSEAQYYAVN
Protocol: (§1) The BSH probes were then assayed for retention of function in the presence of a complex cell lysate. Purified BSH was added to an organism that is not known to endogenously express BSH to precisely control this variable. […] After confirming that the BSH-ABP is capable of labeling BSH in complex biological mixtures, application of the probe was assayed for detection of endogenous BSH. L. plantarum was used because its expression of BSH is well-documented, and this organism is found in many popular over-the-counter probiotic formulations for support of healthy cholesterol levels.

[6] = tested on: human gut microbiome lysate; assay: BSH ABP labeling in human gut microbiome lysate; format: binding
Protocol: The probes were assayed for activity in human gut microbiome extracts.

BSH [7] = assay: Probe labeling of endogenous BSH in L. plantarum lysate; format: binding, Lactobacillus plantarum
Protocol: as §1

BSH [8] = assay: In vivo probe labeling in L. plantarum; format: cell-based, Lactobacillus plantarum
Protocol: as §1

[9] = substrate: Cc1c(CC(=O)O)c(=O)oc2cc(NC(=O)CC[C@@H](C)[C@H]3CC[C@H]4C5[C@H](O)C[C@@H]6C[C@H](O)CC[C@]6(C)[C@H]5C[C@H](O)[C@]34C)ccc12; assay: purified protein, by the assay type; format: biochemical; settings: other: individual replicate, purified BSH 20 μg/ml, 0.1 M sodium phosphate pH 6, 2.5% DMSO, 37° C., 20 min, Ex 350/Em 450 nm
Text: Fluorescent signals for substrate turnover could be detected with as low as mid-nanomolar enzyme concentrations, which is considerably less enzyme when compared to micromolar concentrations required for conventional ninhydrin assays with purified BSH. […] Furthermore, robust signals could be reliably observed in the low micromolar substrate concentration range before any indication of substrate inhibition. Product formation was additionally confirmed through coupling of the BSH reaction to a secondary HPLC-based assay.

## Cc1c(CC(=O)O)c(=O)oc2cc(NC(=O)CC[C@@H](C)[C@H]3CC[C@H]4C5[C@H](O)C[C@@H]6C[C@H](O)CC[C@]6(C)[C@H]5C[C@H](O)[C@]34C)ccc12 (stereo partly drawn) [CA-AMCA]
Purified BSH [1]
  Km: 26 µM

## O=C(/C=C/c1ccc(O)c(O)c1)OCCc1ccccc1 [CAPE, caffeic acid phenethyl ester]
[2]
  effect on CA-AMCA turnover in L. plantarum lysate: Activity was not observed
L. plantarum cells
  effect on probe velocities in whole-cell suspension: probe velocities were consistent with the amount of CAPE added

## NC(=O)CI [iodoacetamide, reference compound]
Purified BSH [3]; IAA 12 mM
  effect on CA-AMCA turnover by BSH: completely ablated substrate turnover
[4]; pre-treatment before probe
  effect of pre-treatment on BA-ABP binding to BSH: Binding was ablated

## C#CCNC(=O)C=CCC[C@@H](C)[C@H]1CC[C@H]2C3[C@H](O)C[C@@H]4C[C@H](O)CC[C@]4(C)[C@H]3C[C@H](O)[C@]12C (stereo partly drawn) [BA-ABP]
BSH [5]
  fluorescent gel labeling, BSH added to lysate of organism not expressing BSH: a fluorescent band that is consistent with BSH labeling, along with several other unknown targets
[4]
  labeling of purified BSH, time dependence: time-dependent
[4]; competition with native substrate
  labeling of purified BSH upon addition of free bile salts: could be attenuated
[4]; incubation with probe in buffer
  labeling of purified BSH, dose dependence: dose-dependent
[6]
  labeling in gut microbiome lysate: labeling was observed
BSH [7]
  fluorescence imaging of labeling in L. plantarum lysate: a band consistent with BSH, along with several others
BSH [8]
  labeling in vivo in L. plantarum: Labeling in vivo was also confirmed

## C[C@H](CCC(=O)NCC(=O)O)[C@H]1CC[C@H]2[C@@H]3[C@H](O)C[C@@H]4C[C@H](O)CC[C@]4(C)[C@H]3C[C@H](O)[C@]12C [glycocholic acid]
Purified BSH [3]; GCA 10 mM
  effect on CA-AMCA turnover by BSH: Attenuated activity

B1: bile salt hydrolase (BSH), purified (Lactiplantibacillus plantarum WCFS1) (protein)
chain: MCTAITYQSYNNYFGRNFDYEISYNEMVTITPRKYPLVFRKVENLDHHYAIIGITADVESYPLYYDAMNEKGLCIAGLNFAGYADYKKYDADKVNITPFELIPWLLGQFSSVREVKKNIQKLNLVNINFSEQLPLSPLHWLVADKQESIVIESVKEGLKIYDNPVGVLTNNPNFDYQLFNLNNYRALSNSTPQNSFSEKVDLDSYSRGMGGLGLPGDLSSMSRFVRAAFTKLNSLSMQTESGSVSQFFHILGSVEQQKGLCEVTDGKYEYTIYSSCCDMDKGVYYYRTYDNSQINSVSLNHEHLDTTELISYPLRSEAQYYAVN
[9]; FIG. 8B
  Km: 31.48 µM
[9]; FIG. 8C
  Km: 22.57 µM
